Patent publication US20260191850A1, “USE OF 8-HYDROXYQUINOLINE DERIVATIVE” (Jiangsu Yahong Meditech Co., Ltd., priority 2022, published 2026)
Where “and” joins values, the source holds several entries; their conditions need not be identical. Identical values can stand only once. Counter-ions that a name gives are not always drawn. Like-named read-outs stand apart in the source and are kept apart here.

Assays:
[1] = test system: Human Papillomavirus 16 (HPV16); experiment: Transient transfection HPV replication assay (E1/E2 plasmids, NanoLuc reporter), HPV16; assay type: cell-based
Description: (§1) The antiviral activity of 7-nitro-8-hydroxyquinoline derivatives against human papillomavirus (HPV) was tested and evaluated using transient transfection assays. This evaluation system included plasmids expressing viral helicase E1 and replication origin binding protein E2, plasmids containing NanoLuc gene of which the expression was driven by a TK promoter (Promega company), and replication origin sequences of human papillomavirus strains listed below. […] The positions of replication origin sequences of the three NanoLuc reporter plasmids were 7825-7993:1-99, 7662-7901:1-99, and 7740-7837:1-102 for HPV-11 (NCBI Accession No. HE611260.1), HPV-16 (NCBI Accession No. KP212151.1), and HPV-18 (NCBI Accession No. KC470230.1), respectively. The positions of E1 open reading frame (ORF) sequences corresponding to HPV-11, HPV-16 and HPV-18 were 832-2781, 864-2813 and 914-2887 in the same sequences, respectively. The positions of E2 open reading frame (ORF) sequences corresponding to HPV-11, HPV-16 and HPV-18 were 2723-3826, 2755-3852 and 2817-3908 in the same sequences, respectively. The cells used for transient transfection were C-33A cells (ATCC HTB-31), and the culture medium was DMEM supplemented with Earle's salt, L-glutamine and 2% fetal bovine serum. In the experiment, the NanoLuc expression plasmid (5 ng/well) was co-transfected with the E1 and E2 expression plasmids of the homologous virus by using Lipofectamine LTXL and Plus Reagent (Invitrogen product, Thermo Fisher Scientific company). […] Meanwhile, the transfected cells were also seeded into duplicated dishes containing the same dilution of test drugs to assess cytotoxicity. All transfected monolayer cells were incubated at 37° C. for 48 hours. The NanoLuc activity expressed by the reporter plasmids was detected with Nano-Glo reagent (Promega company), the cell viability in cytotoxicity plates was measured with CellTiter-Glo reagent (Promega company), and the luminescence intensity was quantified on a microplate reader. The meanings of EC50, CC50, and SI50 were the same as those well-known in the art (where SI50=CC50/EC50), and were not described here.
(§2) J Med Chem. 2016; 59 (23): 10470-8. • Kachaeva, M. et al. In vitro activity of novel 1,3-oxazole derivatives against HPV. Ibnosina J Med Biomed Sci. 2017; 9 (4): 111-8.

[2] = Cytotoxicity in transfected cells, cell viability with CellTiter-Glo; settings: human
Description: as §1, §2

[3] = test system: Human Papillomavirus 11 (HPV11); experiment: Transient transfection HPV replication assay (E1/E2 plasmids, NanoLuc reporter), HPV11; assay type: cell-based; settings: HPV11 strain HE611260.1, C-33 A cells; for EC50: 48 hours
Description: as §1, with “here. […]” for “here.”

[4] = test system: Human Papillomavirus 18 (HPV18); experiment: Transient transfection HPV replication assay (E1/E2 plasmids, NanoLuc reporter), HPV18; assay type: cell-based; settings: HPV18 strain KC470230.1, C-33 A cells; for EC50: 48 hours
Description: as §1, §2

[5] = test system: C-33A cells (ATCC HTB-31); experiment: Cytotoxicity in transfected cells, cell viability with CellTiter-Glo
Description: as §1, §2

[6] = Human papillomavirus 16, C-33-A, 48 h
[7] = C-33 A cells transfected with HPV11 (HE611260.1) plasmids, 48 hours
[8] = C-33 A cells transfected with HPV16 (KP212151.1) plasmids, 48 hours
[9] = C-33 A cells transfected with HPV18 (KC470230.1) plasmids, 48 hours

O=[N+]([O-])c1cc(Cl)c2c(C(F)(F)F)ccnc2c1O [Compound 73, 5-chloro-7-nitro-4-(trifluoromethyl)-quinolin-8-ol hydrochloride]
EC50 [1, 6]: 0.07 µM | CC50 at 48 h ([2]; CC50, C-33 A cells transfected with HPV11 (HE611260.1) plasmids, 48 hours): 8.5 µM | CC50 at 48 h ([2]; CC50, C-33 A cells transfected with HPV16 (KP212151.1) plasmids, 48 hours): 8.32 µM | EC50 ([3]; human papillomavirus 11): 0.06 µM

O=[N+]([O-])c1c(Br)c(Cl)c2cccnc2c1O [Compound 114, 6-bromo-5-chloro-7-nitroquinolin-8-ol]
CC50 at 48 h [2]: 30 µM | EC50 ([3]; human papillomavirus 11): > 6 µM

O=[N+]([O-])c1ccc2c(Cl)c(C3CC3)cnc2c1O [Compound 74, 4-chloro-3-cyclopropyl-7-nitroquinolin-8-ol]
EC50 [1, 6]: 0.15 µM | CC50 at 48 h ([2]; CC50): 34.4 µM | EC50 ([4]; human papillomavirus 18): < 0.05 µM | EC50 ([3]; human papillomavirus 11): 0.57 µM

O=[N+]([O-])c1cc(Cl)c2c(N3CCCCC3)ccnc2c1O [Compound 36, 5-chloro-7-nitro-4-piperidinylquinolin-8-ol]
EC50 [1, 6]: 0.69 µM | EC50 ([4]; human papillomavirus 18): 0.27 µM | EC50 ([3]; human papillomavirus 11): < 0.05 µM

N#Cc1c(Cl)c(Cl)c2cccnc2c1O [Compound 133, 5,6-dichloro-7-cyano-8-hydroxyquinoline]
CC50 at 48 h ([2]; CC50): 5.59 µM | EC50 ([3]; human papillomavirus 11): > 1.2 µM

O=[N+]([O-])c1ccc2c(C(F)(F)F)ccnc2c1O [Compound 62, 7-nitro-4-trifluoromethylquinolin-8-ol]
CC50 at 48 h ([2]; CC50): 5.5 µM | EC50 ([3]; human papillomavirus 11): > 1.2 µM

CN(C)C(=O)N1CCN(c2ccnc3c(O)c([N+](=O)[O-])ccc23)CC1 [Example 25, 4-(8-hydroxy-7-nitroquinolin-4-yl)-N,N-dimethylpiperazine-1-carboxamide]
EC50 ([1]; HPV16 strain KP212151.1, C-33 A cells, 48 hours, read-out: EC50): 0.09 µM | CC50 [5, 7]: 3.36 µM | CC50 [5, 8]: 7.53 µM | CC50 [5, 9]: 5.88 µM | EC50 [4]: 0.1 µM | EC50 [3]: < 0.05 µM

Cc1cc(C#N)c(O)c2ncccc12 [Compound A1]
CC50 at 48 h ([2]; CC50): 20.2 µM | EC50 ([3]; human papillomavirus 11): > 6 µM

O=[N+]([O-])c1cc(Cl)c2c(Cl)ccnc2c1O [Compound 29, 4,5-dichloro-7-nitroquinolin-8-ol]
CC50 at 48 h [2]: 8.74 µM | EC50 ([3]; human papillomavirus 11): 2.96 µM

Cc1ccnc2c(O)c(C#N)cc(Cl)c12 [Compound 131, 4-methyl-5-chloro-7-cyano-8-hydroxyquinoline]
EC50 [1, 6]: 0.55 µM | EC50 ([4]; human papillomavirus 18): 0.14 µM | EC50 ([3]; human papillomavirus 11): 0.53 µM

4-methoxy-7-nitroquinolin-8-ol [Example 21]
CC50 [5]: 22.2 µM | EC50 [3]: > 6 µM

O=[N+]([O-])c1c(Cl)c(Cl)c2cccnc2c1O [Compound 115, 5,6-dichloro-7-nitroquinolin-8-ol]
CC50 at 48 h ([2]; CC50): 112 µM | EC50 ([3]; human papillomavirus 11): > 30 µM

Nc1nc2c(ncn2CCOCP(=O)(O)O)c(=O)[nH]1 [Positive control drug, 9-[2-(phosphonylmethoxy)ethyl]guanine, reference compound]
EC90 ([1]; HPV16 strain KP212151.1, C-33 A cells): 2.3 µM | CC50 [5, 7]: > 150 µM | CC50 [5, 8]: > 150 µM | CC50 [5, 9]: > 150 µM | EC90 [4]: > 150 µM | EC90 [3]: 4.47 µM | EC50 [3]: 1.26 µM and 1.03 µM

CNc1c([N+](=O)[O-])c(O)c2ncccc2c1Cl [Compound 7, 5-chloro-6-(methylamino)-7-nitroquinolin-8-ol]
CC50 at 48 h ([2]; CC50): 19.1 µM | EC50 ([3]; human papillomavirus 11): 5.22 µM

O=[N+]([O-])c1ccc2c(C3CCCCC3)ccnc2c1O [Example 32, 4-cyclohexyl-7-nitroquinolin-8-ol]
CC50 [5]: > 150 µM | EC50 [3]: 3.99 µM

O=[N+]([O-])c1c(Cl)c(F)c2cccnc2c1O [Compound 123, 6-chloro-5-fluoro-7-nitroquinolin-8-ol]
CC50 at 48 h ([2]; CC50): 29.8 µM | EC50 ([3]; human papillomavirus 11): > 6 µM

O=[N+]([O-])c1ccc(O)c2ncccc12 [Compound A2, 5-nitro-8-hydroxyquinoline, reference compound]
EC50 ([4]; human papillomavirus 18): 1.01 µM | EC50 ([3]; human papillomavirus 11): 1.04 µM

O=[N+]([O-])c1ccc2c(NC3COC3)ccnc2c1O [Example 19, 7-nitro-4-(3-oxetanylamino)quinolin-8-ol]
CC50 [5, 7]: 4 µM | EC50 [3]: 0.52 µM

O=[N+]([O-])c1ccc2c(C3CCCCC3)ccnc2c1O [Compound 32, 4-cyclohexyl-7-nitroquinolin-8-ol]
EC50 [1, 6]: 0.08 µM | EC50 ([4]; human papillomavirus 18): < 0.05 µM | EC50 ([3]; human papillomavirus 11): < 0.05 µM
